{
  "source": "patent US8937089B2",
  "about": "“Synergistic mixtures of anthranilamide invertebrate pest control agents” (priority 2004, dated 2015)",
  "tested_on": "beet armyworm (Spodoptera exigua)",
  "assay": "Test I: control of beet armyworm, spray on tomato plants, excised leaves, % mortality and % feeding at 72 hours",
  "type": "in vivo",
  "protocol": "For evaluating control of beet armyworm (Spodoptera exigua), methomyl was in the liquid formulation as Lannate® LV (29% of active ingredient). Compound 1 was in a water dispersible granules (WDG) formulation with 35% active ingredient. The test compounds were dissolved in water. Enough water was added to make 100 ppm of active ingredient for each compound. Serial dilutions were made to obtain the appropriate concentrations. To obtain the desired mixture concentrations of each compound, twice the desired concentration of each of the two mixture partner compounds were mixed together in equal volumes.\nThe diluted solutions of the test compounds were sprayed to run-off on three-week-old tomato plants. The plants were placed on a rotating turntable sprayer (10 rpm). Test solutions were applied using a flat fan air-assisted nozzle (Spraying Systems 122440) at 10 psi (69 kPa). After each treated plant had dried, leaves were excised from the treated plant. The leaves were cut into pieces, which were placed singly into 5.5 cm-by-3.5 cm cells of a sixteen-cell plastic tray. Each cell contained a 2.5-cm square of moistened chromatography paper to prevent desiccation. One insect was placed in each cell. There two trays per treatment. […]",
  "data": [
    {"smiles": "CNC(=O)c1cc(Cl)cc(C)c1NC(=O)c1cc(Br)nn1-c1ncccc1Cl", "note": "[Compound 1, 3-bromo-N-[4-chloro-2-methyl-6-[(methylamino)carbonyl]phenyl]-1-(3-chloro-2-pyridinyl)-1H-pyrazole-5-carboxamide]", "values": [
      {"measurement": "% feeding", "setting": "Compound 1 0.022 ppm", "value": 9, "unit": "%"},
      {"measurement": "% feeding", "setting": "Compound 1 0.041 ppm", "value": 6, "unit": "%"},
      {"measurement": "% feeding", "setting": "Compound 1 0.163 ppm", "value": 2, "unit": "%"},
      {"measurement": "% feeding", "setting": "Compound 1 0.209 ppm", "value": 2, "unit": "%"},
      {"measurement": "% feeding", "setting": "Compound 1 0.30 ppm", "value": 1, "unit": "%"},
      {"measurement": "% feeding", "setting": "Compound 1 0.60 ppm", "value": 1, "unit": "%"},
      {"measurement": "mortality at 0.022 ppm", "setting": "Spodoptera exigua, Compound 1 0.022 ppm, read-out: % mortality (observed)", "value": 13, "unit": "%"},
      {"measurement": "mortality at 0.041 ppm", "setting": "Spodoptera exigua, Compound 1 0.041 ppm, read-out: % mortality (observed)", "value": 44, "unit": "%"},
      {"measurement": "mortality at […]", "setting": "Spodoptera exigua, Compound 1 0.076 ppm, read-out: % mortality (observed)", "value": 25, "unit": "%"},
      {"measurement": "mortality at 0.163 ppm", "setting": "Spodoptera exigua, Compound 1 0.163 ppm, read-out: % mortality (observed)", "value": 35, "unit": "%"},
      {"measurement": "mortality at 0.209 ppm", "setting": "Spodoptera exigua, Compound 1 0.209 ppm, read-out: % mortality (observed)", "value": 47, "unit": "%"},
      {"measurement": "mortality at 0.3 ppm", "setting": "Spodoptera exigua, Compound 1 0.30 ppm, read-out: % mortality (observed)", "value": 59, "unit": "%"},
      {"measurement": "mortality at 0.6 ppm", "setting": "Spodoptera exigua, Compound 1 0.60 ppm, read-out: % mortality (observed)", "value": 75, "unit": "%"}
    ]}
  ]
}
